{"source": "paper PMC8781629", "about": "“Identification of an Amylomaltase from the Halophilic Archaeon Haloquadratum walsbyi by Functional Metagenomics: Structural and Functional Insights” (Life, 2022)", "target": "T1, Hw-A (H. walsbyi amylomaltase) (Haloquadratum walsbyi, UniProt Q18H55)", "T1 construct": "gene malQ; full length plus 21 vector residues incl; N-terminal His6 tag (p15TV-L), E. coli Origami (DE3), about 67 kDa, tag not reported cut", "T1 sequence (Q18H55 entry or part of it)": "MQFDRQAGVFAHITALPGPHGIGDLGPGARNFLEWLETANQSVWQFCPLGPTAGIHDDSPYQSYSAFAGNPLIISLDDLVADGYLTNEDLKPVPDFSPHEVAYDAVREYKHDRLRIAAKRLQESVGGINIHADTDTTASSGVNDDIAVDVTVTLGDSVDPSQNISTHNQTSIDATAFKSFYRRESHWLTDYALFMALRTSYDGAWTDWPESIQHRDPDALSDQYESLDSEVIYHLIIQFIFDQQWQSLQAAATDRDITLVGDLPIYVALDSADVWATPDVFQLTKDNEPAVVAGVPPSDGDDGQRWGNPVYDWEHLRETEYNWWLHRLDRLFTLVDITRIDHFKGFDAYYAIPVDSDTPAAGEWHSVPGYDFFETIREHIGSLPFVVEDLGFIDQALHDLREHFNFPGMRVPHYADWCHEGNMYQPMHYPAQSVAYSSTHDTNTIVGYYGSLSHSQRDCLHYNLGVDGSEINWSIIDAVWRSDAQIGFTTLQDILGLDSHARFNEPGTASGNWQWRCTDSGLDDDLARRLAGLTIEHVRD", "test": "starch transglycosylation, decrease of starch-iodine absorbance at […] nm", "assay_type": "biochemical", "conditions": "acceptor substrate (best of those tested), 0.05%; donor 0.15% starch; 50 mM sodium phosphate pH 7, 1 M NaCl, 40 °C, 1 h"}
{"compound": "OC[C@H]1O[C@H](O[C@H]2[C@H](O)[C@@H](O)[C@@H](O[C@H]3[C@H](O)[C@@H](O)C(O)O[C@@H]3CO)O[C@@H]2CO)[C@H](O)[C@@H](O)[C@@H]1O", "note": "(stereo partly shown) [maltotriose]", "values": [{"measurement": "starch transglycosylation, decrease of starch-iodine absorbance at 620 nm", "value": "The assays indicated maltotriose as the best acceptor for starch degradation"}]}
